Source: US12516039B2, “N-linked isoquinoline amides as LRRK2 inhibitors, pharmaceutical compositions, and uses thereof” (Merck Sharp & Dohme LLC, priority 2020, dated 2026)

Molecular target: T1, GST-tagged truncated human mutant G2019S LRRK2 (Homo sapiens, UniProt Q5S007, G2019S)
T1 construct: GST-tagged truncated human mutant G2019S LRRK2; purchased Life Technologies Corporation (Carlsbad, CA)
Experiment: LRRK2 G2019S Km ATP LanthaScreen assay
Type: biochemical
Conditions: 134 μM ATP (Km ATP), LRRKtide substrate, mean of several tests, read-out: LRRK2 pIC50 (converted)
Experimental: Unless otherwise noted, all reactions are magnetically stirred. Unless otherwise noted, when diethyl ether is used in the experiments described below, it is Fisher ACS certified material and is stabilized with BHT. Unless otherwise noted, “concentrated” and/or “solvent removed under reduced pressure” means evaporating the solvent from a solution or mixture using a rotary evaporator or vacuum pump. Unless otherwise noted, flash chromatography is carried out on a Teledyne Isco (Lincoln, NE), Analogix (Burlington, WI), or Biotage (Stockholm, SWE) automated chromatography system using a commercially available cartridge as the column. Columns may be purchased from Teledyne Isco, Analogix, Biotage, Varian (Palo Alto, CA), or Supelco (Bellefonte, PA) and are usually filled with silica gel as the stationary phase. Reverse phase prep-HPLC conditions, where used, can be found at the end of each experimental section. Aqueous solutions were concentrated on a Genevac (Ipswich, ENG) or by freeze-drying/lyophilization. Unless otherwise noted, all LRRK2 pIC50 data presented in tables refers to the LRRK2 G2019S Km ATP LanthaScreen™ assay (Life Technologies Corp., Carlsbad, CA) that is described in the Biological Assay section.
Biological Assay: LRRK2 Km ATP LanthaScreen™ Assay
The LRRK2 kinase activity reported herein as IC50 values was determined with LanthaScreen™ technology from Life Technologies Corporation (Carlsbad, CA) using GST-tagged truncated human mutant G2019S LRRK2 in the presence of the fluorescein-labeled peptide substrate LRRKtide, also from Life Technologies. The data presented for the Km ATP LanthaScreen™ Assay represents mean IC50 values based on several test results and may have reasonable deviations depending on the specific conditions and reagents used. Assays were performed in the presence of 134 μM ATP (Km ATP). Upon completion, the assay was stopped and phosphorylated substrate detected with a terbium (Tb)-labeled anti-pERM antibody (cat. no. PV4898). The compound dose response was prepared by diluting a 10 mM stock of compound to a maximum concentration of 9.99 μM in 100% dimethylsulfoxide followed by custom fold serial dilution in dimethylsulfoxide nine times. Twenty nanoliters of each dilution was spotted via a Labcyte Echo onto a 384-well black-sided plate (Corning 3575) followed by 15 μl of a 1.25 nM enzyme solution in 1× assay buffer (50 mM Tris pH 8.5, 10 mM MgCl2, 0.01% Brij-35, 1 mM EGTA, 2 mM dithiothreitol, 0.05 mM sodium orthovanadate). Following a 15-minute incubation at room temperature, the kinase reaction was started with the addition of 5 μl of 400 nM fluorescein-labeled LRRKtide peptide substrate and 134 μM ATP solution in 1× assay buffer. The reaction was allowed to progress at ambient temperature for 90 minutes. The reaction was then stopped by the addition of 20 μl of TR-FRET Dilution Buffer (Life Technologies, Carlsbad, CA) containing 2 nM Tb-labeled anti-phospho LRRKtide antibody and 10 mM EDTA (Life Technologies, Carlsbad, CA). After an incubation of 1 hour at room temperature, the plate was read on an EnVision multimode plate reader (Perkin Elmer, Waltham, MA) with an excitation wavelength of 337 nm (Laser) and a reading emission at both 520 and 495 nm. Compound IC50s were interpolated from nonlinear regression best fits of the log of the final compound concentration, plotted as a function of the 520/495-nm emission ratio using Activity base. Abase uses a 4 parameter (4P) logistic fit based on the Levenberg-Marquardt algorithm.

T1 sequence (Q5S007 970-2527 G2019S limits assumed): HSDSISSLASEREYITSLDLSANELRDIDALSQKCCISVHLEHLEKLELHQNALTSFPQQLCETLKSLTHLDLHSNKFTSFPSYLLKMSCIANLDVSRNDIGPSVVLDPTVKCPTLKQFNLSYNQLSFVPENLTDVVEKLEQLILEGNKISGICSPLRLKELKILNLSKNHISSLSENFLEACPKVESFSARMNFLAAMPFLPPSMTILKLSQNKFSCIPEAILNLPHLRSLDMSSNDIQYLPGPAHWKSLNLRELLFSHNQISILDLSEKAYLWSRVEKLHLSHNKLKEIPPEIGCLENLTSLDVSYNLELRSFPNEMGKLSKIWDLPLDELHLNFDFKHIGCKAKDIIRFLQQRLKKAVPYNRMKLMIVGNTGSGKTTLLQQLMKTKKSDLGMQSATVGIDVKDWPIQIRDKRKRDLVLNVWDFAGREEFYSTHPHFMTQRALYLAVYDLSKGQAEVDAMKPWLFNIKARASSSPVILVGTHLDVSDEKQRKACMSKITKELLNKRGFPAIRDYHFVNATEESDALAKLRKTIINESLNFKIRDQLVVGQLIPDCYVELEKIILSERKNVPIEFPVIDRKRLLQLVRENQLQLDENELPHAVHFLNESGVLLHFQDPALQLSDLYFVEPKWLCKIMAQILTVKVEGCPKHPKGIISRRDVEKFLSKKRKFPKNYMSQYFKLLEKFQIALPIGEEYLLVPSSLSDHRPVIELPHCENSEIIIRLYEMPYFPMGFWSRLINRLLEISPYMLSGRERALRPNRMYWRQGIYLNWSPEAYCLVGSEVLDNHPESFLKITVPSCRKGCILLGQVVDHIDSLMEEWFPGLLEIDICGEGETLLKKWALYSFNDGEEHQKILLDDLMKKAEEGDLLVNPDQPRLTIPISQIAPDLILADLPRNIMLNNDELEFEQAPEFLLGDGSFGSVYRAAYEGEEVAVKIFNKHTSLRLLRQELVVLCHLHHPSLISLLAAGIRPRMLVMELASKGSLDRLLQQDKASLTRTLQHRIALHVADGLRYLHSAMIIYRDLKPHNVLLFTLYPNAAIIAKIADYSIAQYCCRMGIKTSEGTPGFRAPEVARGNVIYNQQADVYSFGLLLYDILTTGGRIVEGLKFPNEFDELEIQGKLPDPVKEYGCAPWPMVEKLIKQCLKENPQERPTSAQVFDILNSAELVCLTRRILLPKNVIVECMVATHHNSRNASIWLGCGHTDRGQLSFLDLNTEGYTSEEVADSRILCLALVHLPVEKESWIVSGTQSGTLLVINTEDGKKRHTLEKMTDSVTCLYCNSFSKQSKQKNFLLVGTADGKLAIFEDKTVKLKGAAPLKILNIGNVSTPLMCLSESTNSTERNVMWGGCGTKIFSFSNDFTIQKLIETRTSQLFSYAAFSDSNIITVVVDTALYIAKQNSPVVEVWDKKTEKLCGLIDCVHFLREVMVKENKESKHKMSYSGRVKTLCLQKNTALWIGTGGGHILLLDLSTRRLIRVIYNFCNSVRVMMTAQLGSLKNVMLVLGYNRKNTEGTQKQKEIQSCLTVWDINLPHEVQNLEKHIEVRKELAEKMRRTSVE

SMILES | IC50 [nM]
CC1(N2CCN(c3cc4cc(NC(=O)C5CC56CCOCC6)ncc4cc3Cl)CC2)COCC1C#N (racemic) [Ex-18.1] | 0.912
O=C(Nc1cc2cc(N3CCN(C4COCC4O)CC3)c(Cl)cc2cn1)C1CC1 (single isomer, unassigned) [Ex-1.3, (3R,4R or 3S,4S)-N-(7-chloro-6-(4-(4-hydroxytetrahydrofuran-3-yl)piperazin-1-yl)isoquinolin-3-yl)cyclopropanecarboxamide] | 1.95
O=C(Nc1cc2cc(N3CCN(C4COCC4O)CC3)c(Cl)cc2cn1)C1CC1 (single isomer, unassigned) [Ex-1.4, (3R,4R or 3S,4S)-N-(7-chloro-6-(4-(4-hydroxytetrahydrofuran-3-yl)piperazin-1-yl)isoquinolin-3-yl)cyclopropanecarboxamide] | 57.5
CC1(N2CCN(c3cc4cc(NC(=O)C5CC5)ncc4cc3F)CC2)COCC1O (single isomer, unassigned) [Ex-1.5, (3R,4R or 3S,4S)-N-(7-fluoro-6-(4-(4-hydroxy-3-methyltetrahydrofuran-3-yl)piperazin-1-yl)isoquinolin-3-yl)cyclopropanecarboxamide] | 7.08
CC1(N2CCN(c3cc4cc(NC(=O)C5CC5)ncc4cc3F)CC2)COCC1O (single isomer, unassigned) [Ex-1.6, (3R,4R or 3S,4S)-N-(7-fluoro-6-(4-(4-hydroxy-3-methyltetrahydrofuran-3-yl)piperazin-1-yl)isoquinolin-3-yl)cyclopropanecarboxamide] | 912
CC1(N2CCN(c3cc4cc(NC(=O)C5CC56CCC6)ncc4cc3Cl)CC2)COCC1O (single isomer, unassigned) [Ex-1.7, (1R or 1S)-N-(7-chloro-6-(4-((3R,4R or 3S,4S)-4-hydroxy-3-methyltetrahydrofuran-3-yl)piperazin-1-yl)isoquinolin-3-yl)spiro[2.3]hexane-1-carboxamide] | 6.61
CC1(N2CCN(c3cc4cc(NC(=O)C5CC56CCC6)ncc4cc3Cl)CC2)COCC1O (single isomer, unassigned) [Ex-1.8, (1R or 1S)-N-(7-chloro-6-(4-((3R,4R or 3S,4S)-4-hydroxy-3-methyltetrahydrofuran-3-yl)piperazin-1-yl)isoquinolin-3-yl)spiro[2.3]hexane-1-carboxamide] | 2.34
CC1(N2CCN(c3cc4cc(NC(=O)C5C6COCC65)ncc4cc3Cl)CC2)COCC1O (single isomer, unassigned) [Ex-1.9, (1R or S)-N-(7-chloro-6-(4-((3R,4R or 3S,4S)-4-hydroxy-3-methyltetrahydrofuran-3-yl)piperazin-1-yl)isoquinolin-3-yl)-3-oxabicyclo[3.1.0]hexane-6-carboxamide] | 0.794
CC1(N2CCN(c3cc4cc(NC(=O)C5C6COCC65)ncc4cc3Cl)CC2)COCC1O (single isomer, unassigned) [Ex-1.10, (1R or S)-N-(7-chloro-6-(4-((3R,4R or 3S,4S)-4-hydroxy-3-methyltetrahydrofuran-3-yl)piperazin-1-yl)isoquinolin-3-yl)-3-oxabicyclo[3.1.0]hexane-6-carboxamide] | 107
CC1(N2CCN(c3cc4cc(NC(=O)C5CC56CCCOC6)ncc4cc3Cl)CC2)COCC1O (single isomer, unassigned) [Ex-1.11, (1R,3S, or 1R,3R, or 1S,3S, or 1S,3R)-N-(7-chloro-6-(4-((3R,4R or 3S,4S)-4-hydroxy-3-methyltetrahydrofuran-3-yl)piperazin-1-yl)isoquinolin-3-yl)-5-oxaspiro[2.5]octane-1-carboxamide] | 1.7
CC1(N2CCN(c3cc4cc(NC(=O)C5CC56CCCOC6)ncc4cc3Cl)CC2)COCC1O (single isomer, unassigned) [Ex-1.12, (1R,3S, or 1R,3R, or 1S,3S, or 1S,3R)-N-(7-chloro-6-(4-((3R,4R or 3S,4S)-4-hydroxy-3-methyltetrahydrofuran-3-yl)piperazin-1-yl)isoquinolin-3-yl)-5-oxaspiro[2.5]octane-1-carboxamide] | 3.72
CC1(N2CCN(c3cc4cc(NC(=O)C5CC56CCCOC6)ncc4cc3Cl)CC2)COCC1O (single isomer, unassigned) [Ex-1.13, (1R,3S, or 1R,3R, or 1S,3S, or 1S,3R)-N-(7-chloro-6-(4-((3R,4R or 3S,4S)-4-hydroxy-3-methyltetrahydrofuran-3-yl)piperazin-1-yl)isoquinolin-3-yl)-5-oxaspiro[2.5]octane-1-carboxamide] | 275
CC1(N2CCN(c3cc4cc(NC(=O)C5CC56CCCOC6)ncc4cc3Cl)CC2)COCC1O (single isomer, unassigned) [Ex-1.14, (1R,3S, or 1R,3R, or 1S,3S, or 1S,3R)-N-(7-chloro-6-(4-((3R,4R or 3S,4S)-4-hydroxy-3-methyltetrahydrofuran-3-yl)piperazin-1-yl)isoquinolin-3-yl)-5-oxaspiro[2.5]octane-1-carboxamide] | 0.603
CC1(N2CCN(c3cc4cc(NC(=O)C5CC56CCCOC6)ncc4cc3Cl)CC2)COCC1O (single isomer, unassigned) [Ex-1.15, (1R,3S, or 1R,3R, or 1S,3S, or 1S,3R)-N-(7-chloro-6-(4-((3R,4R or 3S,4S)-4-hydroxy-3-methyltetrahydrofuran-3-yl)piperazin-1-yl)isoquinolin-3-yl)-5-oxaspiro[2.5]octane-1-carboxamide] | 46.8
CC1(N2CCN(c3cc4cc(NC(=O)C5CC56CCCOC6)ncc4cc3Cl)CC2)COCC1O (single isomer, unassigned) [Ex-1.16, (1R,3S, or 1R,3R, or 1S,3S, or 1S,3R)-N-(7-chloro-6-(4-((3R,4R or 3S,4S)-4-hydroxy-3-methyltetrahydrofuran-3-yl)piperazin-1-yl)isoquinolin-3-yl)-5-oxaspiro[2.5]octane-1-carboxamide] | 112
CC1(N2CCN(c3cc4cc(NC(=O)C5CC56CCCOC6)ncc4cc3Cl)CC2)COCC1O (single isomer, unassigned) [Ex-1.17, (1R,3S, or 1R,3R, or 1S,3S, or 1S,3R)-N-(7-chloro-6-(4-((3R,4R or 3S,4S)-4-hydroxy-3-methyltetrahydrofuran-3-yl)piperazin-1-yl)isoquinolin-3-yl)-5-oxaspiro[2.5]octane-1-carboxamide] | 776
CC1(N2CCN(c3cc4cc(NC(=O)C5CC56CCCOC6)ncc4cc3Cl)CC2)COCC1O (single isomer, unassigned) [Ex-1.18, (1R,3S, or 1R,3R, or 1S,3S, or 1S,3R)-N-(7-chloro-6-(4-((3R,4R or 3S,4S)-4-hydroxy-3-methyltetrahydrofuran-3-yl)piperazin-1-yl)isoquinolin-3-yl)-5-oxaspiro[2.5]octane-1-carboxamide] | 0.724
CC1(N2CCN(c3cc4cc(NC(=O)C5CC56CCC(F)(F)CC6)ncc4cc3Cl)CC2)COCC1O (single isomer, unassigned) [Ex-1.19, (1R or 1S)-N-(7-chloro-6-(4-((3R,4R or 3S,4S)-4-hydroxy-3-methyltetrahydrofuran-3-yl)piperazin-1-yl)isoquinolin-3-yl)-6,6-difluorospiro[2.5]octane-1-carboxamide] | 1.1
